For data set [1], the system named is Staphylococcus aureus (ATCC 25923). Put plainly: Antibacterial activity of Doxycycline released from coated bone particles. In kind it is cell-based. The settings on record: ATCC25923, released at different time points over 30 days following hydration. The procedure: The antibacterial activity against Staphylococcus aureus (ATCC 25923), of Doxycycline that was released from bone particles coated with the matrix composition of the invention was followed for a period of 30 days following its hydration (FIG. 4). The MIC (Minimal Inhibitory Concentration) for Doxycycline that was released from the matrix composition at different time points was calculated to be ˜1 μg/ml, and MIC 50 (the concentration that inhibits 50% growth) was ˜0.1 μg/ml, values that were similar to the control free Doxycycline.

Data set [2] can be described thus: Stability of entrapped Doxycycline during hydration in FBS solution at 37° C. Format: physicochemical. As to conditions: after hydration for 21 days, matrix: released+reservoir. As for the experimental part: Doxycycline is known to degenerate under hydrating conditions. The matrix composition of the present invention can protect Doxycycline from this degradation. The stability of the entrapped Doxycycline during the hydration of the matrix composition (in FBS solution at 37° C.) was tested. At each time point two parameters were tested: 1) Doxycycline molecules released from the medical device of the invention and 2) Doxycycline molecules reservoir in the medical device of the invention. The latter was extracted from the formulation using methylene chloride. The sum of the two Doxycycline quantities represents the overall quantity of Doxycycline in the product at each time point. Free Doxycycline, incubated under the same conditions, was used as control. Results are plotted in FIG. 3.

Data set [3] relates to S. aureus. The settings on record: Shaarei-Zedek Jerusalem Medical Center Database; cited from earlier work.

Converted amounts (≈) assume the structure as drawn.

On to `C[C@H]1c2cccc(O)c2C(=O)C2=C(O)[C@]3(O)C(=O)C(C(N)=O)=C(O)[C@@H](N(C)C)[C@@H]3[C@@H](O)[C@@H]21` [free Doxycycline, Doxycycline], for which the MIC50 in data set [1] (read-out: MIC 50 (the concentration that inhibits 50% growth)) is ~0.1 µg/mL (≈ 0.225 µM). In data set [1] (read-out: MIC (Minimal Inhibitory Concentration)), the MIC was ~1 µg/mL (≈ 2.25 µM). For the same compound, the “overall doxycycline remaining intact, of the initial dose” value in data set [2] is 20%.

On to gentamicin, for which the “isolated S. aureus sub species in the clinic resistant to the antibiotic” value in data set [3] is on record as 30-40%.

With penicillin, in data set [3], the “isolated S. aureus sub species in the clinic resistant to the antibiotic” value is recorded as “more than 50%”.
